Calls of active or inactive are those of the source. The calls are words filed in the database; no cut-off is given here.
Columns and labels:
[1] = Clearance in male Sprague-Dawley rat at 1 mg/kg, iv measured by LC-MS/MS analysis; format: ADME, organism-based; settings: in vivo
[2] = Drug recovery in ileum of male Sprague-Dawley rat at 4.5 mg/kg, po administered as C14-lableled compound and assessed as radioactivity and measured at 0.25 hrs; format: ADME, organism-based; settings: in vivo
[3] = Drug recovery in lung of male Sprague-Dawley rat at 4.5 mg/kg, po administered as C14-lableled compound and assessed as radioactivity and measured at 1 hr; format: ADME, organism-based; settings: in vivo
Mus musculus [4] = experiment: Antifibrotic activity in C57BL/6 mouse model of CCI4-induced liver fibrosis assessed as decrease in serum ALT level at 0.1 to 1 mg/kg, po administered once daily for 4 weeks; format: functional, organism-based; settings: dose 0.1-1 mg/kg
[5] = Drug recovery in heart of male Sprague-Dawley rat at 4.5 mg/kg, po administered as C14-lableled compound and assessed as radioactivity and measured at 24 hrs; format: ADME, organism-based; settings: in vivo, BLD = below limit of detection
[6] = Half-life in male C57BL/6 mouse at 5 mg/kg, po measured by LC-MS/MS analysis; format: ADME, organism-based; settings: in vivo
[7] = Drug recovery in ileum of male Sprague-Dawley rat at 4.5 mg/kg, po administered as C14-lableled compound and assessed as radioactivity and measured at 24 hrs; format: ADME, organism-based; settings: in vivo
[8] = Mutagenecity in Salmonella typhimurium TA102 measured by Ames test; format: toxicity; settings: salmonella enterica subsp. enterica serovar typhimurium
[9] = Drug recovery in heart of male Sprague-Dawley rat at 4.5 mg/kg, po administered as C14-lableled compound and assessed as radioactivity and measured at 0.25 hrs; format: ADME, organism-based; settings: in vivo
Mus musculus [10] = experiment: Antifibrotic activity in C57BL/6 mouse model of CCI4-induced liver fibrosis assessed as reduction in fibrosis area at 0.1 to 1 mg/kg, po administered once daily for 4 weeks; format: functional, organism-based; settings: dose 0.1-1 mg/kg
[11] = Drug recovery in lung of male Sprague-Dawley rat at 4.5 mg/kg, po administered as C14-lableled compound and assessed as radioactivity and measured at 24 hrs; format: ADME, organism-based; settings: in vivo, BLD = below limit of detection
Mus musculus [12] = experiment: Antifibrotic activity in C57BL/6 mouse model of CCI4-induced liver fibrosis assessed as reduction in fibrosis area at 1 mg/kg, po administered once daily for 4 weeks; format: functional, organism-based
[13] = Drug recovery in heart of male Sprague-Dawley rat at 4.5 mg/kg, po administered as C14-lableled compound and assessed as radioactivity and measured at 1 hr; format: ADME, organism-based; settings: in vivo
Mus musculus [14] = experiment: Anti-NASH activity in western style diet-induced nonalcoholic steatohepatitis model of male C57BL/6 mouse assessed as reduction in liver TG level at 1 mg/kg, po administered once daily from week 32 to 44; format: functional, organism-based
[15] = Drug recovery in pancreas of male Sprague-Dawley rat at 4.5 mg/kg, po administered as C14-lableled compound and assessed as radioactivity and measured at 24 hrs; format: ADME, organism-based; settings: in vivo
[16] = Ratio of drug level in skin to plasma in male Sprague-Dawley rat at 4.5 mg/kg, po administered as C14-lableled compound and measured at 0.25 to 6 hrs; format: ADME, organism-based; settings: other tissue, time 0.25-6 hrs
Mus musculus [17] = experiment: Anti-NASH activity against high fat (HF) diet-induced nonalcoholic steatohepatitis in leptin-deficient ob/ob mouse model assessed as reduction in NASH activity score (NAS) at 3 mg/kg, po administered once daily from week 5 to 10; format: functional, organism-based
Estrogen receptor = molecular target: T1, Estrogen receptor (Homo sapiens, UniProt P03372); experiment: Agonist activity at estrogen receptor alpha (unknown origin)
T1 sequence (P03372 whole entry): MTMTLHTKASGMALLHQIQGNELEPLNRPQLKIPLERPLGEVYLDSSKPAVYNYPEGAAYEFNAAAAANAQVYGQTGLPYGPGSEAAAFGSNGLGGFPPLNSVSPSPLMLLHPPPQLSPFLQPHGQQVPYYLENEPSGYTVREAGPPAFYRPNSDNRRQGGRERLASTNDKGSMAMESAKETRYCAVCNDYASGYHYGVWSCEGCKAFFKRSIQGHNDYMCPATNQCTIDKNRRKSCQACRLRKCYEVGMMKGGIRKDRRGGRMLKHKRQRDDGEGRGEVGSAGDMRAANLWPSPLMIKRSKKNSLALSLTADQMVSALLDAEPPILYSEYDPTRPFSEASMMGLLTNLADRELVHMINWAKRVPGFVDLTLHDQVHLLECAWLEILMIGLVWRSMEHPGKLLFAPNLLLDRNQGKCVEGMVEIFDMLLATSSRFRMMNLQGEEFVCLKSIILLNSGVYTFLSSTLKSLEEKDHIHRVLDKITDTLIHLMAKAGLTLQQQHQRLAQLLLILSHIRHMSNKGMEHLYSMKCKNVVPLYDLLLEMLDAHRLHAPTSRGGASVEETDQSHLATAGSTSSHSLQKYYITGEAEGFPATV

[18] = molecular target: T2, Peroxisome proliferator-activated receptor alpha (Homo sapiens, UniProt Q07869); experiment: Agonist activity at PPARalpha (unknown origin)
T2 sequence (Q07869 whole entry): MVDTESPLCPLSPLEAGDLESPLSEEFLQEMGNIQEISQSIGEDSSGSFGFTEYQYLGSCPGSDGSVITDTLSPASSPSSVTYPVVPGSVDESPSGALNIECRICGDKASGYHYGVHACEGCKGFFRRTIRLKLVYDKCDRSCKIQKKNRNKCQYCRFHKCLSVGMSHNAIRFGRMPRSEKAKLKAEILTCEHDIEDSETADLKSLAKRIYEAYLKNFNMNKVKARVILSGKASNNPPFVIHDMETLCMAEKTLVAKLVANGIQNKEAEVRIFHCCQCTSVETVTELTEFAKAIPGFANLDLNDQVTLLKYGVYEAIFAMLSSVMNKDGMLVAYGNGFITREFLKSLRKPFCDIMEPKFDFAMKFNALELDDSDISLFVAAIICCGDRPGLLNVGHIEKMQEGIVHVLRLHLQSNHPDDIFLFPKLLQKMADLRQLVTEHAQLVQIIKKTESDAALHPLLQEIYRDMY

[19] = Drug metabolism in bile of Sprague-Dawley rat assessed as production of toxic metabolites at 4.5 mg/kg, po administered as C14-lableled compound with single dose; format: ADME, organism-based; settings: in vivo
[20] = Ratio of drug level in heart to plasma in male Sprague-Dawley rat at 4.5 mg/kg, po administered as C14-lableled compound and measured at 0.25 to 6 hrs; format: ADME, organism-based; settings: other tissue, time 0.25-6 hrs
Mus musculus [21] = experiment: Anti-NASH activity in western style diet-induced nonalcoholic steatohepatitis model of male C57BL/6 mouse assessed as reduction in serum ALT level at 1 mg/kg, po administered once daily from week 32 to 44; format: functional, organism-based
[22] = Drug metabolism in plasma of Sprague-Dawley rat assessed as production of toxic metabolites at 4.5 mg/kg, po administered as C14-lableled compound with single dose; format: ADME, organism-based; settings: in vivo
[23] = Drug recovery in kidney of male Sprague-Dawley rat at 4.5 mg/kg, po administered as C14-lableled compound and assessed as radioactivity and measured at 1 hr; format: ADME, organism-based; settings: in vivo
[24] = Drug recovery in kidney of male Sprague-Dawley rat at 4.5 mg/kg, po administered as C14-lableled compound and assessed as radioactivity and measured at 0.25 hrs; format: ADME, organism-based; settings: in vivo

Q: With `O=C(O)c1ccc2c(c1)Oc1ccc(OCc3c(-c4c(Cl)cccc4Cl)noc3C3CC3)nc1C1(CC1)C2` as the molecule, how does the clearance [1] read?
A: 35.3 mL/min/kg

Q: What about the Drug recovery [2] of the same molecule?
A: 606 ngequiv/g

Q: And the Drug recovery [3]?
A: 814 ngequiv/g

Q: And the Activity (Mus musculus [4])?
A: Active

Q: What about the Drug recovery [5] of the same molecule?
A: Bld

Q: And the half-life [6]?
A: 1.06 h

Q: And the Drug recovery [7]?
A: 1542 ngequiv/g

Q: What about the Activity [8] of the same molecule?
A: Non-Toxic

Q: And the Drug recovery [9]?
A: 208 ngequiv/g

Q: And the Activity (Mus musculus [10])?
A: Active

Q: What about the Drug recovery [11] of the same molecule?
A: Bld

Q: And the Activity (Mus musculus [12])?
A: Active

Q: What about the Drug recovery [13] of the same molecule?
A: 341 ngequiv/g

Q: And the Activity (Mus musculus [14])?
A: Active

Q: What about the Drug recovery [15] of the same molecule?
A: 206 ngequiv/g

Q: And the Ratio [16]?
A: 0.56

Q: And the Activity (Mus musculus [17])?
A: Active

Q: And the EC50 (Estrogen receptor)?
A: > 10 µM

Q: And the EC50 [18]?
A: > 10 µM

Q: And the Drug metabolism [19]?
A: Metabolite_Notdetected

Q: What about the Ratio [20] of the same molecule?
A: 1

Q: And the Activity (Mus musculus [21])?
A: Active

Q: What about the Drug metabolism [22] of the same molecule?
A: Metabolite_Notdetected

Q: And the Drug recovery [23]?
A: 457 ngequiv/g

Q: What about the Drug recovery [24] of the same molecule?
A: 281 ngequiv/g

Reference: ChEMBL document CHEMBL5154690, “Discovery of a tricyclic farnesoid X receptor agonist HEC96719, a clinical candidate for treatment of non-alcoholic steatohepatitis” (Eur J Med Chem, 2022)
